In ChEMBL document CHEMBL6109122 (J Med Chem, 2025):
Calls of active or inactive are those of the source. No cut-off for these calls is given here.

How the values were obtained:
Mus musculus [1] = experiment: Anti-inflammatory activity in imiquimod-induced female BALB/c mouse psoriasis model assessed as reduction in micro abscess at 5 mg/kg, ip administered daily topically for 6 days by H and E staining based analysis; assay type: functional, organism-based; conditions: time 6.0 day
[2] = target: T1, Protein cereblon/Non-receptor tyrosine-protein kinase TYK2 (Homo sapiens, UniProt P29597+Q96SW2); experiment: PROTAC activity at CRBN/TYK2 in human Jurkat cells assessed as induction of degradation of TYK2 at 10 nM measured after 10 to 36 hrs by Western blot analysis relative to control; assay type: cell-based; conditions: time 10-36 hrs
T1 sequence (P29597 whole entry, looked up): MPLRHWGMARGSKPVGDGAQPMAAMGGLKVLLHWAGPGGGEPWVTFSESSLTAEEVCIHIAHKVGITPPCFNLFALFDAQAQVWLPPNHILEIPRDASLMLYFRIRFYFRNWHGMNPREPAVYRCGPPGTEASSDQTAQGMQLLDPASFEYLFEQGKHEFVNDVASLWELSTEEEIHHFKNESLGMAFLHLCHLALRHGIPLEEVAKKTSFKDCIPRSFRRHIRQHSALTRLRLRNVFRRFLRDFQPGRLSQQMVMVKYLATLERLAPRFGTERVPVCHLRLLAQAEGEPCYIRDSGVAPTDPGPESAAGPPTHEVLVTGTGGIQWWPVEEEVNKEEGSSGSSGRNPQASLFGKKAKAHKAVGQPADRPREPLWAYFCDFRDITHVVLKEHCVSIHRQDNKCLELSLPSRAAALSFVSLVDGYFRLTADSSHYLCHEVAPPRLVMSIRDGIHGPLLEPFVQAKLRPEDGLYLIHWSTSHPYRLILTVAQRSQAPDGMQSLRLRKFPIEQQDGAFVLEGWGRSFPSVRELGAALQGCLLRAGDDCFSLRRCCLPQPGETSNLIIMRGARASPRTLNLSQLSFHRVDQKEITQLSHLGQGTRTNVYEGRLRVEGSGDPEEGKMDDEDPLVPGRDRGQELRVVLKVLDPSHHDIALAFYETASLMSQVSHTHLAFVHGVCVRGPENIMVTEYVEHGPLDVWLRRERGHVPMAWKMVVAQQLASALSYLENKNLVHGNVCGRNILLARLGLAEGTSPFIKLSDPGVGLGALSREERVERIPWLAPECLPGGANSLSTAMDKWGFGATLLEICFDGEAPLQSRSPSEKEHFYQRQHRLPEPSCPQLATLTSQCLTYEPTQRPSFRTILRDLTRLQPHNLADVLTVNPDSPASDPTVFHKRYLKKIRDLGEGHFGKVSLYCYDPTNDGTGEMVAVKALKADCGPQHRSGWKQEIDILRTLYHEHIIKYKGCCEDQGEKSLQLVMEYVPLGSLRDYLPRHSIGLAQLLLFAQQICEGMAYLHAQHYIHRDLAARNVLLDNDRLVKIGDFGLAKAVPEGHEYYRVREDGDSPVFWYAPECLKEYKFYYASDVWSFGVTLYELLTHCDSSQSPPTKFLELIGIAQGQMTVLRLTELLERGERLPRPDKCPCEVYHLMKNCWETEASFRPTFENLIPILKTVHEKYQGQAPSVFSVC
T1 sequence (Q96SW2 whole entry, looked up): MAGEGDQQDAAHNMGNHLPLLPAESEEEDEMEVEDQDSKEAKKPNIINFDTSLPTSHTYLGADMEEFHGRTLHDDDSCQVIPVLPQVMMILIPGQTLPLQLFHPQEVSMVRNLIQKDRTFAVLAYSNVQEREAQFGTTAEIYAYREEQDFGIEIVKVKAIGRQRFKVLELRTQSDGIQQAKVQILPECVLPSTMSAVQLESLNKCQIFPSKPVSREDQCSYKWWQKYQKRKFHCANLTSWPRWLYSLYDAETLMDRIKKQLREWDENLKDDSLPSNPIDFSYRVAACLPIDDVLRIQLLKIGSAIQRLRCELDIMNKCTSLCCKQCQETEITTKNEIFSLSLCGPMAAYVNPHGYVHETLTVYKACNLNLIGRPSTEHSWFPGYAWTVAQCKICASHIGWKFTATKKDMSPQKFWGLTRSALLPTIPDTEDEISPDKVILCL

[3] = target: T1, Protein cereblon/Non-receptor tyrosine-protein kinase TYK2; experiment: PROTAC activity at CRBN/TYK2 in human Jurkat cells assessed as induction of degradation of TYK2 at 100 nM measured after 10 hrs by Western blot analysis relative to control; assay type: cell-based
Mus musculus [4] = experiment: Anti-inflammatory activity in imiquimod-induced female BALB/c mouse psoriasis model assessed as reduction in acanthosis at 5 mg/kg, ip administered daily topically for 6 days by H and E staining based analysis; assay type: functional, organism-based; conditions: time 6.0 day
[5] = Inhibition of TYK2 dependent STAT3 phosphorylation in IL-6 stimulated human PBMC cells preincubated for 60 mins followed by IL-6 stimulation and measured after 60 mins by FACS assay; assay type: cell-based
[6] = Metabolic stability in mouse liver microsomes assessed as half life measured up to 120 mins by LC-MS/MS analysis; assay type: ADME, Microsome
[7] = target: T1, Protein cereblon/Non-receptor tyrosine-protein kinase TYK2; experiment: PROTAC activity at CRBN/TYK2 in human Jurkat cells assessed as induction of degradation of TYK2 at 10 nM measured after 4 hrs by Western blot analysis; assay type: cell-based
Mus musculus [8] = organism: Mus musculus; experiment: Anti-inflammatory activity in imiquimod-induced female BALB/c mouse psoriasis model assessed as reduction in TYK2 protein expression by Immunohistochemical analysis; assay type: functional, organism-based
[9] = Apparent permeability of the compound in human Caco-2 cells at 10 uM measured up to 120 min by LC-MS/MS analysis; assay type: ADME, cell-based
Jurkat [10] = experiment: Downregulation of TYK2 protein level in human Jurkat cells at 1 to 100 nM measured after 10 hrs by Western blot analysis; assay type: functional, cell-based; conditions: dose 1-100 nM
Mus musculus [11] = experiment: Anti-inflammatory activity in imiquimod-induced female BALB/c mouse psoriasis model assessed as effect on body weight at 5 mg/kg, ip administered daily topically for 6 days; assay type: functional, organism-based; conditions: time 6.0 day
Mus musculus [12] = organism: Mus musculus; experiment: Anti-inflammatory activity in imiquimod-induced female BALB/c mouse psoriasis model assessed as reduction in INF-alpha expression in serum by ELISA method; assay type: functional, organism-based
[13] = target: T1, Protein cereblon/Non-receptor tyrosine-protein kinase TYK2; experiment: PROTAC activity at CRBN/TYK2 in human Jurkat cells assessed as induction of degradation of TYK2 at 10 nM preincubated with cycloheximide for 2 hrs followed by compound addition and measured after 10 hrs by Western blot analysis; assay type: cell-based
[14] = Inhibition of TYK2 dependent STAT3 phosphorylation in IL-12 stimulated human PBMC cells preincubated for 60 mins followed by IL-12 stimulation and measured after 60 mins by FACS assay; assay type: cell-based
[15] = target: T1, Protein cereblon/Non-receptor tyrosine-protein kinase TYK2; experiment: PROTAC activity at CRBN/TYK2 in human Jurkat cells assessed as induction of degradation of TYK2 at 10 nM preincubated with deucravacitinib for 2 hrs followed by compound addition and measured after 10 hrs by Western blot analysis; assay type: cell-based
Jurkat [16] = experiment: Downregulation of JAK2 protein level in human Jurkat cells at 1 to 100 nM measured after 10 hrs by Western blot analysis; assay type: functional, cell-based; conditions: dose 1-100 nM
Jurkat [17] = experiment: Downregulation of Ikaros level in human Jurkat cells at 30 nM measured after 4 hrs by DIA-Based Proteomic analysis; assay type: functional, cell-based
[18] = target: T1, Protein cereblon/Non-receptor tyrosine-protein kinase TYK2; experiment: PROTAC activity at CRBN/TYK2 in human Jurkat cells assessed as induction of degradation of TYK2 at 10 nM preincubated with thalidomide for 2 hrs followed by compound addition and measured after 10 hrs by Western blot analysis; assay type: cell-based
Mus musculus [19] = organism: Mus musculus; experiment: Anti-inflammatory activity in imiquimod-induced female BALB/c mouse psoriasis model assessed as reduction in IL-17 expression in serum by ELISA method; assay type: functional, organism-based
Mus musculus [20] = organism: Mus musculus; experiment: Anti-inflammatory activity in imiquimod-induced female BALB/c mouse psoriasis model assessed as reduction in IL-23 expression in serum by ELISA method; assay type: functional, organism-based
Jurkat [21] = experiment: Downregulation of JAK1 protein level in human Jurkat cells at 1 to 100 nM measured after 10 hrs by Western blot analysis; assay type: functional, cell-based; conditions: dose 1-100 nM
Jurkat [22] = experiment: Effect on JAK1 protein level in human Jurkat cells at 30 nM measured after 4 hrs by DIA-Based Proteomic analysis; assay type: functional, cell-based
[23] = target: Non-receptor tyrosine-protein kinase TYK2 (Homo sapiens, UniProt P29597); experiment: Displacement of fluorophore-labeled probe from TYK2 JH2 domain (unknown origin) by HTRF assay
Sequence of Non-receptor tyrosine-protein kinase TYK2 (P29597 whole entry, the tested form may be a part): as the sequence (P29597 whole entry, looked up) above

[24] = target: T2, Tyrosine-protein kinase JAK3 (Homo sapiens, UniProt P52333); experiment: Binding affinity to JAK3 (unknown origin) by ADP-glo kinase assay
T2 sequence (P52333 whole entry): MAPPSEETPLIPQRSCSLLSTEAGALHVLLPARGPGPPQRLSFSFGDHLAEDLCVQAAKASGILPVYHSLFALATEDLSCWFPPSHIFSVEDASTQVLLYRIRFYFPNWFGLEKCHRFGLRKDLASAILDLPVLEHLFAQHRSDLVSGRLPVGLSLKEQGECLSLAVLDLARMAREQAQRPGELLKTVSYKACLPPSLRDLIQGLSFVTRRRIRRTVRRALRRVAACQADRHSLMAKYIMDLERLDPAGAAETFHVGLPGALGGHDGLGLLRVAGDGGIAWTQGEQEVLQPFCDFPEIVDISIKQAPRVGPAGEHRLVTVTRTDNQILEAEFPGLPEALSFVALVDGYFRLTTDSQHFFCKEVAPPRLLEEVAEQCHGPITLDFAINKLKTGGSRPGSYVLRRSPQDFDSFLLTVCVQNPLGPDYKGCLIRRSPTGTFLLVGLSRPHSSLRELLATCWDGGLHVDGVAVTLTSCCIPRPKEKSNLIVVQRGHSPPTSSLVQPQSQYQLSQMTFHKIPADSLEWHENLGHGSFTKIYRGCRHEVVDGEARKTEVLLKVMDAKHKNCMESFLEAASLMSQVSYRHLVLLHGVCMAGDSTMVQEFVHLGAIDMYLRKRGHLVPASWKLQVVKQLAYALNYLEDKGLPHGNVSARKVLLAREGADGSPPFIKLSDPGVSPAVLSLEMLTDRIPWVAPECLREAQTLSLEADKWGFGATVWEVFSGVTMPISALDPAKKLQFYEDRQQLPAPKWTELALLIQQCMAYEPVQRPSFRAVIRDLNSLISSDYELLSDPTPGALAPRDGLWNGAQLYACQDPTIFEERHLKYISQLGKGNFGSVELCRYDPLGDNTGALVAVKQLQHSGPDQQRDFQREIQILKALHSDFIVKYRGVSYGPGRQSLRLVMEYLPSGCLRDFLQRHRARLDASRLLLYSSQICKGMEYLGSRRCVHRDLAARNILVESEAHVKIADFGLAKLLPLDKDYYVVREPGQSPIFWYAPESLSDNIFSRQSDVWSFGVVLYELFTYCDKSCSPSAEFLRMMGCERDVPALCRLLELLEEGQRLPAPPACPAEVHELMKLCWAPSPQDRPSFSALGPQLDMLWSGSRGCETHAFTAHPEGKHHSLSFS

Activity [2]: 90% | Activity [3]: 90% | IC50 [5]: > 10 µM | half-life [6]: 101 min | Activity [7]: Active | Papp at 2 h, 10 µM [9]: < 0.1 ×10⁻⁶ cm/s | Activity [13]: Active | IC50 [14]: 8.6 nM | Activity [15]: inactive | Activity [18]: inactive | IC50 [23]: 1.2 nM | IC50 [24]: > 10 µM
SMILES: CNC(=O)c1cnc(Nc2ccc(C(=O)NC3CCC(Nc4ccc5c(c4)C(=O)N(C4CCC(=O)NC4=O)C5=O)CC3)cn2)cc1Nc1cccc(-c2ncc(F)cn2)c1OC (centres undefined)
Activity (Mus musculus [1]): Active | Activity (Mus musculus [4]): Active | Activity (Mus musculus [8]): Active | Activity (Jurkat [10]): Active | Activity (Mus musculus [11]): Active | Activity (Mus musculus [12]): Active | Activity (Jurkat [16]): Active | Activity (Jurkat [17]): inactive | Activity (Mus musculus [19]): Active | Activity (Mus musculus [20]): Active | Activity (Jurkat [21]): Active | Activity (Jurkat [22]): inactive
